{"source": "patent US20070043108A1", "about": "“Use of equol for ameliorating or preventing neuropsychiatric and neurodegenerative diseases or disorders” (priority 2002, published 2007)", "key": {"[1]": {"test_system": "GDX males", "experiment": "Examples 5 and 6: gonadectomized (GDX) male rats treated with DHTP, equol or both; histology", "format": "in vivo, rat", "description": "One week following arrival, animals are gonadectomized (GDX) under isoflurane anesthesia and allowed to recover for 7 days. Following recovery, animals are assigned to the following groups 1) DMSO, 2) DHTP (2 mg/1 kg), 3) racemic equol (0.25 mg/kg), or 4) both DHTP and racemic equol. Injections are given subcutaneously daily for 4 days. Animals are killed via decapitation and trunk blood and tissues are collected for analysis.\nTissues, including prostate, testes and epididymis, are removed from the animal, dissected free of fat and connective tissues, weighed, fixed by immersion in 4% paraformaldehyde, and then sectioned at 15 μm on a cryostat. Tissue sections are mounted on charged slides (Superfrost Plus, Fisher Scientific, Pittsburgh, Pa.) prewarmed to 23° C., and stained with hematoxylin and eosin (H&E), dehydrated in ascending alcohol and cleared with xylene."}, "[2]": {"test_system": "Adult male Sprague-Dawley rats", "experiment": "Example 15: elevated plus maze of equol injected male rats", "format": "in vivo, rat", "conditions": "0.250 mg/Kg/day sc, seven days, n = 8", "text": "The elevated plus maze is a behavioral test used to quantify anxiety-related behavior and identify anxiolytic drugs (Pellow S. et al., J Neurosci Methods, 14:149-147 (1985); Current Protocols In Neuroscience (1997) 8.3.1-8.3.15, John Wiley & Sons. NY, N.Y.). The test relies on the inherent conflict between exploration of a novel environment and avoidance of its aversive features. Normally, animals spend little time and make few entries into the open arms of the maze compared to the closed arms of the maze (Imhof J. T. et al., Behav Brain Res, 56:177-180 (1993). However, animals treated with anxiolytics, such as benzodiazepines (valium), spend more time in the open arms and the number of entries into the open arms reflects a decrease in anxiety-related behaviors (Pellow S. et al., J Neurosci Methods, 14:149-147 (1985); Current Protocols In Neuroscience (1997) 8.3.1-8.3.15, John Wiley & Sons. NY, N.Y.; Chopin P. et al., Psychopharm, 110:409-414 (1993).\nAdult male Sprague-Dawley rats receive daily injections of either DMSO, racemic equol (0.250 mg/Kg/day), R-equol (0.250 mg/Kg/day), or S-equol (0.250 mg/Kg/day) in a total volume of 0.3 cc DMSO by subcutaneous injection. At the end of seven consecutive days of treatment the animals are tested in the elevated plus maze in order to quantify anxiety-related behaviors."}, "[3]": {"target": "T1, AR (Rattus norvegicus, UniProt P15207)", "T1 construct": "incubated with prostate supernatant and then passed through the 30 cm column; from tissue; host or cells: prostate supernatant", "T1 sequence (P15207 1-902)": "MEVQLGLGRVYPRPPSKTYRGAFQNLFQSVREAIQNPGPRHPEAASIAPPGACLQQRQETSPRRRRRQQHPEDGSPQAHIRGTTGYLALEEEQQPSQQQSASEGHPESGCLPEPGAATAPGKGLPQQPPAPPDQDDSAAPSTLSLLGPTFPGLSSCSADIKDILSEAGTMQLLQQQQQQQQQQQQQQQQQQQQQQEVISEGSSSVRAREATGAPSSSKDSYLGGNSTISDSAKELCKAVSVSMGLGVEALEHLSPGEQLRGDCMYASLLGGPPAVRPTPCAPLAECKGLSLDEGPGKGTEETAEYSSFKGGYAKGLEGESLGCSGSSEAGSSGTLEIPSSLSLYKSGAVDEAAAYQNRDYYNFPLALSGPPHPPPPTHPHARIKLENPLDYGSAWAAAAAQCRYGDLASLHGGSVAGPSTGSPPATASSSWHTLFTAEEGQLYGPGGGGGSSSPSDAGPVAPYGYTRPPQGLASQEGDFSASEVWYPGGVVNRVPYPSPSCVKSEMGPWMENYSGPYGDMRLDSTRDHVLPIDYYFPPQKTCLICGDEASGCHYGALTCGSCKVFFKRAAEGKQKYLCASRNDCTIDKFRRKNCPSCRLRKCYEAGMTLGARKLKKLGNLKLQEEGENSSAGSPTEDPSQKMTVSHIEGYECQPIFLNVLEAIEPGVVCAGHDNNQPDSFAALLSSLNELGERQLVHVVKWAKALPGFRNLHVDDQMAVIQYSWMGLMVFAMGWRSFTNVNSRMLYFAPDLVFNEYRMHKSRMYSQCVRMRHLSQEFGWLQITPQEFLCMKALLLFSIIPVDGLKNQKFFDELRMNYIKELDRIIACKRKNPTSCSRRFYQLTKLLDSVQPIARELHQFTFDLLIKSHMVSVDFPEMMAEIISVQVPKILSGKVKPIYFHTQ", "experiment": "Binding to the androgen receptor (prostate supernatant, [3H]DHT)"}, "[4]": {"target": "T2, ERα (Rattus norvegicus, UniProt P06211)", "T2 construct": "Full length rat ERα expression vector (pcDNA-ERα; RH Price UCSF); made in house; host or cells: TnT-coupled rabbit reticulocyte lysate in vitro translation (Promega)", "T2 sequence (P06211 1-600)": "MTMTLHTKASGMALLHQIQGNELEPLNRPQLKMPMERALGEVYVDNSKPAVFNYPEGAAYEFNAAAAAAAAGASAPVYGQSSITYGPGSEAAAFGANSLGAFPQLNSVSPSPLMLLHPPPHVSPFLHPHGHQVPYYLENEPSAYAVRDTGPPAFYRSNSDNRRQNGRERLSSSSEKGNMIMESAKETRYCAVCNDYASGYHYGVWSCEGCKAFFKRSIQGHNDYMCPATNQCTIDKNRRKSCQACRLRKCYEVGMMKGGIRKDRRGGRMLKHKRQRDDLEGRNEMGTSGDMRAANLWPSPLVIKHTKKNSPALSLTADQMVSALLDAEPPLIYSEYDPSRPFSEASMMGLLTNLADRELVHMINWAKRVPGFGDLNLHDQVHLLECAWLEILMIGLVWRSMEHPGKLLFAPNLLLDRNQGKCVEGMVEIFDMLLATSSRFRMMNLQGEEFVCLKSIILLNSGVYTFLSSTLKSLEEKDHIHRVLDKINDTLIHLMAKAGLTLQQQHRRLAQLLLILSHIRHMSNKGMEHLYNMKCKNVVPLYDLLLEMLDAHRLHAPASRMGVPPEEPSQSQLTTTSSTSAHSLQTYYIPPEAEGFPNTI", "experiment": "Competition binding of equol enantiomers with [3H]E2 for in vitro translated ERα", "description": "(§1) In vitro binding studies were performed to examine the relative affinities of S— and R-enantiomeric equol with the estrogen receptors ERα and ERβ.\n(§2) Synthesis of Hormone Receptor Proteins: Full length rat ERα expression vector (pcDNA-ERα; RH Price UCSF) and ERβ expression vector (pcDNA-ERβ; T A Brown, Pfizer, Groton, […].) were used to synthesize hormone receptors in vitro using the TnT-coupled reticulocyte lysate system (Promega, Madison, Wis.) with T7-RNA polymerase, during a 90 min reaction at 30° C. Translation reaction mixtures were stored at −80° C. until further use.\n(§3) Saturation isotherms: In order to calculate and establish the binding affinity of the S-equol and R-equol enantiomers for ERα and ERβ, 100 μL aliquots of reticulocyte lysate supernatant were incubated at optimal time and temperature; 90 min at room temperature (ERβ) and 18 hrs at 4° C. (ERα), with increasing (0.01-100 nm) concentrations of [3H] […] These times were determined empirically and represent optimal binding of receptor with estrogen. Nonspecific binding was assessed using a 300-fold excess of the ER agonist diethylstilbestrol, in parallel tubes. Following incubation, bound and unbound [3H]E2 were separated by passing the incubation reaction through a 1 mL lipophilic Sephadex LH-20 (Sigma-Aldrich Co., Saint Louis, Mo.) column Columns were constructed by packing a disposable pipette tip (1 mL; Labcraft, Curtin Matheson Scientific, Inc, Houston, Tex.) with TEGMD (10 mm Tris-Cl, 1.5 mm EDTA, 10% glycerol, 25 mm molybdate, and 1 mm dithiothreitol, pH 7.4)-saturated Sephadex according to previously published protocols (Wanda et al., 1986; O'Keefe and Handa, 1990). For chromatography, the columns were re-equilibrated with TEGMD (100 μL), and the incubation reactions were added individually to each column and allowed to incubate on the column for an additional 30 min. Following this incubation, 600 μL of TEGMD were added to each column, flow-through was collected, 4 mL scintillation fluid was added, and samples were counted (5 min each) in an 2900 TR Packard scintillation counter (Packard Bioscience, Meriden, Conn.).\n(§4) Competition binding studies were used to assess the estrogenic properties of equol's S-equol and R-equol enantiomers. Based on the ability of S and R to compete with [3H]"}, "[5]": {"test_system": "Adult male Sprague-Dawley rats", "experiment": "Example 3: prostate, epididymis and body weight gain in male rats treated with racemic, R- or S-equol", "format": "in vivo, rat", "conditions": "0.25 mg/kg/day sc, seven days", "description": "Adult male Sprague-Dawley rats are randomly assigned to […] groups and receive daily injections of either DMSO, a racemic mixture of equol at 0.250 mg/kg/day), R-equol at 0.250 mg/kg/day, or S-equol at 0.250 mg/kg/day. The total volume of each injection is 0.3 cc, administered sc at the nape of the rat's neck. After seven consecutive days of treatment, the rats are killed and the body weight gain during the injection period is determined."}, "[6]": {"target": "T3, ERβ (Rattus norvegicus, UniProt Q62986)", "T3 construct": "Full length rat ERα expression vector (pcDNA-ERα; RH Price UCSF) and ERβ expression vector (pcDNA-ERβ; T A Brown, Pfizer; made in house; host or cells: TnT-coupled rabbit reticulocyte lysate in vitro translation (Promega)", "T3 sequence (Q62986 whole entry)": "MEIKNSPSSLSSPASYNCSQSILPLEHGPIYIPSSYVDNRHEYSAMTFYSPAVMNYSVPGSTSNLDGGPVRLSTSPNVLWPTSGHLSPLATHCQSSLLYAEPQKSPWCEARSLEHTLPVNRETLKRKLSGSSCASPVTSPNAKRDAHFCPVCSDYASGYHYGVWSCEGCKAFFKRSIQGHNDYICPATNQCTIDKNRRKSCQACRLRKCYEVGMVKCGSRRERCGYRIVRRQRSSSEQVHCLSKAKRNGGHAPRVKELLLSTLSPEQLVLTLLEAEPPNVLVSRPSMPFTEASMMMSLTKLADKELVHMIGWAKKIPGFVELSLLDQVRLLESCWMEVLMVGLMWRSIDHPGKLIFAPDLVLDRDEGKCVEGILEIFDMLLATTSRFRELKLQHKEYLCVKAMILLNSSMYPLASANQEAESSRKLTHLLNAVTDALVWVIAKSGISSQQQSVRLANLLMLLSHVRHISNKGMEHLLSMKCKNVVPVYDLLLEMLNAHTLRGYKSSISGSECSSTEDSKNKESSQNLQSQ", "experiment": "Competition binding of equol enantiomers with [3H]E2 for in vitro translated ERβ", "description": "as §1, §2, §3, §4"}, "[7]": {"test_system": "Long-Evans rats, male offspring", "experiment": "Example 19: elevated plus maze of adult male offspring after pre- and early postnatal treatment", "format": "in vivo, rat", "description": "Pregnant Long-Evans rats were treated via daily subcutaneous injections from gestational day 14 through 20 and during lactation from postnatal day 2 through 25 with: 1) control-DMSO vehicle or, 2) genistein@ 3 mg/day or 3) equol@ 3 mg/day according to the treatment groups. All animals were fed a phytoestrogen-low diet throughout these studies (10 ppm isoflavones). There were no significant differences in maternal body weights just before birth among the treatment groups. […] The maternal and male offspring genistein and equol levels @ 25 days post birth) paralleled that of the treatments administered.\nAt approximately 90 days of age the male offspring were tested by treatments (control, genistein and equol) in the EPM that was video-taped for 3 minutes and later recorded for the number of entries into—and the percentage of total time spent—on the open arms, as previously described. […] Equol time intervals were 2-fold greater than genistein values and genistein levels were approximately 9-fold greater than controls."}, "[8]": {"conditions": "competition with [3H]E2, in vitro translated ER"}, "[9]": {"conditions": "3 mg/day sc to dams, offspring tested at about 90 days"}}, "note": "“And” between values parts separate entries of the source, which are not always exact repeats. Identical values can stand only once.", "data": [{"smiles": "CCC(=O)O[C@H]1CC[C@H]2[C@@H]3CC[C@H]4CC(=O)CC[C@]4(C)[C@H]3CC[C@]12C", "note": "[DHTP, DHT propionate, reference compound]", "values": [{"measurement": "LH", "setting": "[1]; GDX males, given alone, vs DMSO", "value": "significantly decreased"}, {"measurement": "prostate weight", "setting": "[1]; GDX males, given alone, vs vehicle-treated GDX", "value": "significant increase"}, {"measurement": "plasma 5α-DHT", "setting": "[1]; GDX, DHTP 2 mg/kg sc daily for 4 days", "value": "significant elevations"}]}, {"smiles": "Oc1ccc([C@H]2COc3cc(O)ccc3C2)cc1", "note": "[S-equol]", "values": [{"measurement": "Center Area", "setting": "[2]", "value": "27.5 ± 4.1", "unit": "s"}, {"measurement": "Open Arm Time", "setting": "[2]", "value": "33.6 ± 7.0", "unit": "s"}, {"measurement": "binding to the androgen receptor", "setting": "[3]", "value": "does not bind the androgen receptor"}, {"measurement": "relative binding affinity for ERα compared with 17β-estradiol, fold less", "setting": "[4]", "value": "49.2 fold and 49 fold"}, {"measurement": "Kd", "setting": "[4]; [8]", "value": "6410 ± 1010", "unit": "pM"}, {"measurement": "Body Wt Gain (g)", "setting": "[5]", "value": "56.1 (±3.1) g"}, {"measurement": "Epididymis (g)", "setting": "[5]", "value": "0.86 (±0.05) g"}, {"measurement": "Prostate (g)", "setting": "[5]", "value": "0.35 (±0.03) g"}, {"measurement": "affinity for ERβ, fold less", "setting": "[6]", "value": "approximately 5 fold"}, {"measurement": "binding to ERβ relative to that of 17β-estradiol", "setting": "[6]", "value": "approximately 20%"}, {"measurement": "Kd", "setting": "[6]; as stated in the background section", "value": 700, "unit": "pM"}, {"measurement": "Kd", "setting": "[6]; [8]", "value": "730 ± 200", "unit": "pM"}]}, {"smiles": "O=c1c(-c2ccc(O)cc2)coc2cc(O)cc(O)c12", "note": "[genistein]", "values": [{"measurement": "body weights at birth vs controls", "setting": "[7]; 3 mg/day sc to dams from gestational day 14", "value": "slightly (but not significantly) higher"}, {"measurement": "entries into the open arms vs controls", "setting": "[7]; [9]", "value": "not significantly different"}, {"measurement": "time in the open arms vs controls", "setting": "[7]; [9]", "value": "significantly greater"}, {"measurement": "open arm time intervals, fold greater than controls", "setting": "[7]; offspring tested at about 90 days", "value": "approximately 9 fold"}]}]}
